The values that follow come from article PMC1247619 (Environmental Health Perspectives, 2004).

The target of one data set is T1, human ER-α (hER-α) (Homo sapiens, UniProt P03372).
T1 construct: expressed in transfected cells
T1 sequence (P03372 1-595): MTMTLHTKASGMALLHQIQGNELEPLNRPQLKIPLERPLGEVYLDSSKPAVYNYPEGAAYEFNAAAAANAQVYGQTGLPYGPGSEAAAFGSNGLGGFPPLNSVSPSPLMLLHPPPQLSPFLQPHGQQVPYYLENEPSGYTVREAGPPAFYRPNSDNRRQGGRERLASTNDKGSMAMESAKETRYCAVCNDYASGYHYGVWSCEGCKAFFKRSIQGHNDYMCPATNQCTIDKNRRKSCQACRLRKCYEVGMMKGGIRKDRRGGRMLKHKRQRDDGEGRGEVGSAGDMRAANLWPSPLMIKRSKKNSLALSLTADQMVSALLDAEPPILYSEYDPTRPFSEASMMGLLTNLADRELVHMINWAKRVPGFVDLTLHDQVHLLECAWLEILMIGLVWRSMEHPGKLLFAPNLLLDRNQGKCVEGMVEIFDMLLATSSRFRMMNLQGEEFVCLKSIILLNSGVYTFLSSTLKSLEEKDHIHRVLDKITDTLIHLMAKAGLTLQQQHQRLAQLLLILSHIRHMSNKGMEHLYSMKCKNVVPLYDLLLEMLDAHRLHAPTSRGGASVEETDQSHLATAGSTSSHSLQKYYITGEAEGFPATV
Nature of the data set: In vitro estrogenic activity assay, stable HEK cell line with hER-α and ERE-luciferase reporter. In kind it is cell-based. The procedure: (§1) Briefly, cells were plated in 96-well tissue culture plates (NUNC, Life Technologies, Breda, The Netherlands) in medium consisting of phenol red–free Dulbecco’s modified Eagle’s medium/F12 (1:1) medium containing 3 × 10^−8 M selenite, 10 μg/mL transferrin, 0.2% (wt/vol) bovine serum albumin, and 5% (wt/vol) dextran-coated charcoal-stripped fetal calf serum. […] Luciferase activity of 25 μL cell lysate was measured with the Luclite Luciferase Reporter gene assay kit (Perkin-Elmer, Brussels, Belgium) according to the manufacturer’s instructions using 25 μL Luclite solution on a Topcount liquid scintillation counter (Perkin-Elmer).
(§2) The in vitro dose–response activation curves obtained with the stable cell lines were fitted using the sigmoidal fit {y = a0 + a1/1 + exp[–(x – a2)/a3]} in Slidewrite Plus for Windows (version 3.0; BIS, Ridderkerk, The Netherlands), which determines the fitting coefficients by an iterative process minimizing the c2 merit function (least squares criterion). […] The cell line data shown are the average of at least two independent experiments with each experimental point performed in triplicate. Data are shown as a percentage of maximal induction by E2.
Background: A reporter such as luciferase makes a cellular process visible.

For a further data set, the target named is T2, hER-β (Homo sapiens, UniProt Q92731).
T2 construct: expressed in transfected cells
Nature of the data set: In vitro estrogenic activity assay, stable HEK cell line with hER-β and ERE-luciferase reporter. In kind it is cell-based. The procedure: as §1, §2

In data set [1] the test system is estrogen receptors (ERs). Nature of the data set: In vivo (in utero) luciferase measurement with IVIS imaging in transgenic ERE-luciferase embryos. The settings on record: 10,000 μg/kg, 8 hr after exposure. Further details: species or system mouse. The procedure:
(§3) To obtain transgenic embryos, heterozygote transgenic males from line INS3 were mated with wild-type females (F1 from C57Bl/6J × CBA). Heterozygote males were used so that every litter would also contain wild type embryos, which could serve as an internal negative control. Females were checked daily for the presence of a vaginal plug, and when a plug was detected, that day was designated 0.5 day postcoitum (dpc).
(§4) Animal experiments were performed with approval of the Netherlands Academy of Arts and Sciences Animal Ethics Committee. The IVIS imaging experiments were done with additional approval of the Animal Ethics Committee of NV Organon.
(§5) We considered one litter as a statistical unit rather than one embryo because we assumed that all embryos in one litter were subject to the same variation of the compound injection and placental transfer. Therefore, the average ± SEM per litter was calculated, and these were then averaged to express the luciferase activity per group. All data were log-transformed and tested for normality with the Shapiro-Wilks test using SPSS 12.0 (SPSS, Chicago, IL, USA).

For data set [2], the system named is estrogen receptors (ERs). Nature of the data set: Ex vivo luciferase measurement in lysates of transgenic embryos exposed in utero. Further details: species or system mouse. The method, then:
as §3, §4
When embryos were isolated from the amniotic membranes, we kept tails separated and stored at –20°C for subsequent DNA isolation and polymerase chain reaction for presence of the transgene, as described previously ([Legler et al. 2000]). Only transgenic embryos were used for further luciferase measurement. Subsequently, embryos were thawed on ice and lysis buffer [1% (vol/vol) Triton X-100, 2.5 × 10^−2 M glycylglycine, 1.5 × 10^−2 M MgSO4, 4 × 10^−3 M EGTA, and 1 × 10^−3 M dithiothreitol (DTT)] was added. Next, samples were sonicated, the lysate centrifuged, and the supernatant collected. […] Luciferase activity was corrected for protein content as measured with the Bradford assay.
as §5

Details of data set [3]: method as in Takahashi and Oishi 2000. The settings on record: pregnant rats; ref Takahashi and Oishi 2000; cited from earlier work.
Another data set deals with ER. Further details: method as in Nagel et al. (2001). The settings on record: 1 mg/kg; ref Nagel et al. (2001); cited from earlier work.
The subject of a further data set is human and mouse ER-α. Further details: method as in Matthews et al. 2000. The following applies: ref Matthews et al. 2000; cited from earlier work.
Another data set deals with uterine wet weight. The following applies: cited from earlier work.
For data set [4] the following is noted: pregnant mice, 100 mg/kg subcutaneously; ref Domoradzki et al. 2003; Shin et al. 2002; Uchida et al. 2002; cited from earlier work.
Details of data set [5]: method as in McLachlan 1977. The settings on record: 14C-DES injected in pregnant mice; ref McLachlan 1977; cited from earlier work.
Data set [6] deals with estrogen receptors (ERs). The following applies: adult transgenic animals; ref Lemmen et al. 2004; cited from earlier work.

T2 sequence (Q92731 whole entry): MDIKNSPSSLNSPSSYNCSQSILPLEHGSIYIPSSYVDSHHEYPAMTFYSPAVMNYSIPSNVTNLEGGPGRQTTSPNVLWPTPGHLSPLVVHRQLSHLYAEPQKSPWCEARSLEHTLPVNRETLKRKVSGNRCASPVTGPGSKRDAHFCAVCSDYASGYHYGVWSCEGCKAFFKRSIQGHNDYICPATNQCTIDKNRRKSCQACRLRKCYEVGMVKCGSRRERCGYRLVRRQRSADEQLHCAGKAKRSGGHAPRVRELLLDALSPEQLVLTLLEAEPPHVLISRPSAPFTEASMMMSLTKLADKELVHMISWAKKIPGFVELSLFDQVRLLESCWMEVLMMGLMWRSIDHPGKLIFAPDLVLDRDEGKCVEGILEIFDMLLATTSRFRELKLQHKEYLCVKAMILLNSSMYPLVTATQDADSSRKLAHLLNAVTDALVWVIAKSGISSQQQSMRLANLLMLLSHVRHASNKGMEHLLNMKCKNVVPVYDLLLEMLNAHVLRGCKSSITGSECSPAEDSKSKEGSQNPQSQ

On to `CC(C)(c1ccc(O)cc1)c1ccc(O)cc1` [BPA, bisphenol A], for which the “times less active than DES in activating ER-α” value at human ER-α (hER-α) was 5,000 times. Besides, at hER-β, the “times less active than DES toward ER-β transactivation” value is reported as 1,400 times. Further, in the data set with estrogen receptors (ERs) [1], the “luciferase activity versus oil-exposed animals, IVIS” value is “not statistically significant”. Moreover, the “luciferase activity versus oil-exposed controls, embryo lysates” value in the data set on estrogen receptors (ERs) [2] (1,000 μg/kg, 8 hr after exposure) is “significantly higher”; in the data set with estrogen receptors (ERs) [2] (10,000 μg/kg, 8 hr after exposure) it was “significantly higher”. Moreover, the “dose at which in utero luciferase activation was significant from oil-exposed controls” value in the data set on estrogen receptors (ERs) [2] (8 hr after exposure) is listed as 1 mg/kg. In the data set on estrogen receptors (ERs) [2] (24 hr after exposure, BPA 10–10,000 μg/kg (Figure 2)), the “luciferase activity versus oil-exposed animals, embryo lysates” value is “no difference”. Also, the “time of peak concentration in fetal circulation” value in data set [3] was 15 to 20 min. Also, the “ER transcriptional activity in the adult uterus” value in the data set with ER was “significant increase”. Moreover, the “affinity of human versus mouse ER-α” value with human and mouse ER-α is given as “same affinity”. In addition, the “uterine wet weight response” value in the data set with uterine wet weight (1 mg/kg, ref Nagel et al. (2001)) is reported as “did not induce”. Besides, the uterotrophic response entry in the data set on uterine wet weight (CD-1 mice, 100 mg/kg, ref Markey et al. 2001) is on record as “induced”. Also, the “activity in the uterine wet weight assay” value in the data set on uterine wet weight (CFLP mice, 0.5 mg/mouse (~ 16.7 mg/kg), ref Coldham et al. 1997) was “inactive”. Moreover, the “toxicity in the uterine wet weight assay” value in the data set on uterine wet weight (mouse, in vivo, 167 mg/kg) was “toxic”. Further, the “time after exposure at which detected in fetal sera, liver, brain, uterus and testes” value in [4] is on record as 30 min.
Consider `CC/C(=C(/CC)c1ccc(O)cc1)c1ccc(O)cc1` [DES, diethylstilbestrol, reference compound], for which, in [5], the “time of peak fetal plasma levels” value was 2 h. The “affinity of human versus mouse ER-α” value with human and mouse ER-α is “same affinity”.
Turning to `C[C@]12CC[C@@H]3c4ccc(O)cc4CC[C@H]3[C@@H]1CC[C@@H]2O` [E2, 17β-estradiol], in the data set on estrogen receptors (ERs) [6], the “time of peak luciferase activity after exposure” value was 8 h.
